Measured values reported in PMC6882465, “Towards discovery of new leishmanicidal scaffolds able to inhibit Leishmania GSK-3” (Journal of Enzyme Inhibition and Medicinal Chemistry, 2019).

Each compound was assayed against LdGSK-3 (Leishmania donovani, UniProt A6N857) (assay: Inhibition of LdGSK-3 with Kinase Glo). Details: Table S2; 10 µM.
Format: biochemical
Procedure: Assessment of inhibition of LdGSK-3 with Kinase Glo^TM
The reaction was allowed to proceed for 30 min at 30 °C, then it was incubated at room temperature for another 10 min after addition of Kinase Glo reagents (Promega, Ref. V6712). ATP consumption by LdGSK-3 was measured indirectly through end-point luminescence measurement of each well in a Varioskan Flash microplate reader (Thermo).

Chain of LdGSK-3 (A6N857 entry or part of it): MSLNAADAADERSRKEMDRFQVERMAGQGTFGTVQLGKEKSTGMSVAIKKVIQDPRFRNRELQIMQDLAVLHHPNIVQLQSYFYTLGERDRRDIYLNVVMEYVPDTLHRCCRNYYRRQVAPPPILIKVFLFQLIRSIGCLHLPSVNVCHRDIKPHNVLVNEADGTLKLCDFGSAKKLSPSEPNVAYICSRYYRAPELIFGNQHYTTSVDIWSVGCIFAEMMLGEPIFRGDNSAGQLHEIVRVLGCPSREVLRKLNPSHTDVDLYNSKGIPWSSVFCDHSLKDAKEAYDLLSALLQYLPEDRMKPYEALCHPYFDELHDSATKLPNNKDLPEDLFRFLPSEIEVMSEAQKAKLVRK

Row | % inhibition @ 10µM (initial screening on LdGSK3) | Structure (SMILES)
1 | 15.30±1.60% | COc1ccc(CNc2cc(C3CC3)nc(-c3nccn3C)n2)cc1.O=C(O)C(F)(F)F [Compound 43]
2 | -2.00±2.70% | c1ccc(Nc2nc(-c3ccccn3)cc(N3CCOCC3)n2)cc1 [Compound 34]
3 | 17.10±1.10% | Cl.c1ccc(CNc2cccc3ccncc23)cc1 [Compound 126]
4 | 12.65±6.10% | CN(Cc1nc2cccc(C(=O)N3CCN(Cc4ccccc4)CC3)c2[nH]1)C1CCCc2cccnc21.O=C(O)C(F)(F)F (centres unmarked) [Compound 91]
5 | 17.50±3.45% | O=C(COc1nn(-c2ccccc2)c2ncccc12)NCc1ccccc1 [Compound 180]
6 | 20.95±1.30% | COc1ccc2ncc(=O)n(CCN3CCC(NCc4ccc(-c5cccs5)cc4)CC3)c2n1 [Compound 200]
7 | 37.05±1.50% | N#Cc1cccc(Nc2nccc(N3CCC(NS(=O)(=O)c4cccc(C#N)c4)CC3)n2)c1.O=C(O)C(F)(F)F [Compound 100]
8 | 3.25±2.75% | Cc1ccc(Nc2nc(-c3ccccn3)cc(N3CCCC(O)C3)n2)cc1 (centres unmarked) [Compound 48]
9 | -2.95±1.70% | O=C(CN1CCN(S(=O)(=O)c2cccc([N+](=O)[O-])c2)CC1)Nc1ccc(Oc2ccccc2)cc1 [Compound 152]
10 | 32.90±2.70% | Nc1nc(-c2ccccc2)cc(-c2nc3ncccc3[nH]2)n1 [Compound 169]
11 | 3.80±1.90% | Cc1nn(-c2nc(N)nc(-c3ccccn3)n2)c(N)c1-c1ccccc1.O=C(O)C(F)(F)F.O=C(O)C(F)(F)F [Compound 29]
12 | 11.85±0.55% | CCN(CC)c1nc(N(C)C)nc2c1CN(Cc1ccccc1)CC2 [Compound 146]
13 | 5.60±2.35% | Cc1ccccc1CNc1cc(C2CC2)nc(-c2nccn2C)n1.O=C(O)C(F)(F)F [Compound 49]
14 | 1.55±0.55% | O=C(Nc1nc(-c2ccccn2)cs1)N1C[C@H]2C[C@@]2(c2ccccc2)C1 [Compound 47]
15 | 8.90±6.75% | Cn1ccnc1-c1nc(NCc2ccccc2Cl)cc(C2CC2)n1.O=C(O)C(F)(F)F [Compound 129]
16 | 5.25±1.70% | CC(CCc1ccccc1)NC(=O)CN(Cc1ccccn1)Cc1ccccn1.O=C(O)C(F)(F)F (centres unmarked) [Compound 134]
17 | 2.50±1.45% | O=C(CN(Cc1ccccn1)Cc1ccccn1)NCc1ccc(-c2csnn2)cc1.O=C(O)C(F)(F)F [Compound 154]
18 | 0.90±0.90% | Oc1c(-c2n[nH]c(CCc3ccccc3)n2)ncc2cccnc12 [Compound 66]
19 | 28.65±1.95% | O=C(CCc1ccc(-c2ccccc2)o1)N1CCN(c2ccc(O)cc2)CC1 [Compound 178]
20 | -0.55±1.25% | c1ccc(-c2nc(NC3CCCC3)c3ccccc3n2)nc1 [Compound 92]
21 | 5.90±4.55% | Cc1nc2c(-c3ncn[nH]3)cc(NC(=O)Cc3ccccc3)cn2c1C.O=CO [Compound 37]
22 | -5.50±2.15% | COc1cccc(C(=O)[C@H]2C[C@@H]2CN(Cc2ccccn2)Cc2ccccn2)c1 [Compound 153]
23 | 0.90±4.25% | COc1ccc(C2C3CCCCC3(O)CCN2CC(=O)Nc2ccc(Cl)cc2Cl)cc1 (centres unmarked) [Compound 194]
24 | 13.00±3.55% | CCn1c(NC(=O)Cc2ccc(F)cc2)nc2ccccc21 [Compound 138]

Further lines, the compound ahead of its results:

Row | Structure (SMILES) | % inhibition @ 10µM (initial screening on LdGSK3)
25 | Cl.NCc1ccc2c(Cl)cc(Cl)c(O)c2n1 [Compound 121] | 14.80±1.70%
26 | Br.Nc1nccc(-c2csc(Nc3ccc(Cl)cc3)n2)n1 [Compound 101] | 16.40±2.40%
27 | Cn1nc(C(=O)N2CCc3ccccc32)c2c1CCS(=O)(=O)C2 [Compound 30] | 5.20±1.90%
28 | CCS(=O)(=O)c1cccc(C(=O)Nc2nc(-c3ccccn3)cs2)c1 [Compound 165] | 4.70±0.85%
29 | CCCn1c(NC(=O)CCn2cc(Br)cn2)nc2ccccc21 [Compound 70] | 3.80±1.25%
30 | COc1ccccc1C(=O)Nc1nnc(-c2ccc3c(c2)OCO3)s1 [Compound 162] | 9.20±3.30%
31 | COc1cc(OC)cc(C(NS(=O)(=O)c2ccc(Cl)c(C(F)(F)F)c2)c2nccn2C)c1 (centres unmarked) [Compound 139] | 15.95±1.70%
32 | COc1ccc(NS(=O)(=O)c2cc(NC(=O)c3ccc([N+](=O)[O-])s3)ccc2OC)cc1 [Compound 131] | 19.75±3.70%
33 | CCS(=O)(=O)Nc1ccc(C2=NN(C(=O)c3cccs3)C(c3ccccc3OC)C2)cc1 (centres unmarked) [Compound 108] | 5.15±1.90%
34 | c1ccc(Nc2nc3ccccc3[nH]2)nc1 [Compound 40] | 13.50±3.10%
35 | COc1ccc(S(=O)(=O)Nc2ccc(C(=O)Nc3nc(-c4ccccn4)cs3)cc2)cc1 [Compound 175] | 16.65±1.70%
36 | COc1ccccc1C1CC(c2ccc(NS(C)(=O)=O)cc2)=NN1C(=O)c1cccs1 (centres unmarked) [Compound 195] | 16.55±4.05%
37 | Cc1nc(N2CC(C)OC(C)C2)sc1C(=O)Nc1ccc2c(c1)OCO2 (centres unmarked) [Compound 209] | 16.10±4.80%
38 | CCc1nn(-c2ncc(F)c(NC(C)C)n2)c(N)c1C1CCCCC1 [Compound 41] | 7.05±1.35%
39 | CCCCn1nnnc1CSc1nc(C)cc(C)c1C#N [Compound 161] | 3.00±3.05%
40 | COc1cc(C2SCC(=O)Nc3c2c(C)nn3-c2nc3ccccc3s2)cc(OC)c1O (centres unmarked) [Compound 179] | 29.35±2.80%
41 | CCC(=O)N1N=C(c2ccc3c(c2)CCCC3)Sc2c1ncn2C(=O)CC [Compound 127] | 9.65±3.70%
42 | CC(c1ccc2c(c1)CCCC2)N(C)c1ncc2c(N)nc(N)nc2n1 (centres unmarked) [Compound 62] | 12.10±2.40%
43 | COCCn1c(-c2ccc3c(c2)OCO3)cnc1NCc1ccccc1OC.O=C(O)C(=O)O [Compound 164] | 1.15±1.40%
44 | O=C1CN(C(=O)c2cccc(Nc3ncc(-c4ccc5c(c4)OCO5)cn3)c2)CCN1 [Compound 67] | 5.65±3.60%
45 | COc1ccc([N+](=O)[O-])cc1NC(=O)c1cc(Cl)ccc1O [Compound 210] | 17.65±3.55%
46 | Cc1nc(C(=O)Nc2ccc3c(c2)OCO3)nn1-c1ccc(F)cc1 [Compound 198] | 7.15±1.10%
47 | Cc1ccc(NC(=O)c2ccc([N+](=O)[O-])s2)cc1S(=O)(=O)N1CCOCC1 [Compound 97] | 6.15±1.05%

Row | Structure (SMILES) | % inhibition @ 10µM (initial screening on LdGSK3)
48 | COc1ccc(Cl)cc1CC(=O)Nc1n[nH]c(-c2ccccn2)n1 [Compound 122] | 3.95±2.45%
49 | O=C(CSc1nnc(-c2ccc3c(c2)OCO3)o1)N(Cc1ccco1)CC(F)(F)F [Compound 184] | 53.23±3.29%
50 | COc1ccc(OC)c2c(=O)c(Cc3ccccc3)c(C)[nH]c12 [Compound 110] | -0.10±5.35%
51 | CN(C)c1ccc(N)cc1CN(CC1CCCO1)S(C)(=O)=O (centres unmarked) [Compound 136] | 13.95±3.25%
52 | Cc1ccc(NC(C)C(=O)Nc2ccc(C#N)cc2)cc1S(=O)(=O)N1CCCCC1 (centres unmarked) [Compound 137] | 9.35±1.30%
53 | COc1cccc(CN(C)Cc2nc(N)c3c(C)c(C)sc3n2)c1 [Compound 81] | 6.35±3.00%
54 | COCc1cc(Nc2ccc(Cl)cc2)nc(-c2ccccn2)n1 [Compound 27] | 6.35±5.75%
55 | Cc1nnc(-c2nc(NCc3ccc(Cl)cc3)c3cccnc3c2O)[nH]1 [Compound 31] | 8.20±1.70%
56 | Nc1nc(-c2ccccn2)nc(N)c1Cc1c(F)cccc1Cl [Compound 190] | 8.15±3.40%
57 | CCN(CC)c1nc(Nc2ccncc2)nc2ccccc12 [Compound 36] | 7.10±1.90%
58 | COc1cccc(Nc2cc(C)nc(-c3ccccn3)n2)c1 [Compound 32] | 8.80±4.10%
59 | O=C(Nc1cccc(S(=O)(=O)Nc2ccc(Br)cc2)c1)c1ccc([N+](=O)[O-])s1 [Compound 133] | 15.75±4.25%
60 | CC(C)Nc1nc(Cl)nc2ccccc12 [Compound 106] | -4.60±0.90%
61 | CCOc1ccc(Nc2ccc(S(=O)(=O)N3CCN(C)CC3)cc2[N+](=O)[O-])cc1OCC [Compound 166] | 18.60±2.15%
62 | COc1ccc(-c2csc(NC(=O)c3ccc([N+](=O)[O-])s3)n2)cc1OC [Compound 142] | 7.95±2.05%
63 | CC(=O)Nc1ccc(-c2csc(NC(=O)c3ccc([N+](=O)[O-])s3)n2)cc1 [Compound 141] | 8.55±0.55%
64 | Cc1ccc(-c2csc(NC(=O)C=Cc3ccc(S(=O)(=O)N4CCOCC4)cc3)n2)o1 [Compound 69] | 64.27±2.13%
65 | CCCc1cc(N)nc(-c2cc(CCC)cc(N)n2)c1 [Compound 33] | -0.35±3.85%
66 | CCCCN(C(=O)c1ccc(NC(=O)C(C)C)cc1)c1ccccc1 [Compound 168] | 14.15±2.15%
67 | Cc1nc(C(=O)Nc2ccc3c(c2)OCO3)nn1-c1ccc(Cl)cc1 [Compound 149] | 8.90±2.10%
68 | Cc1ccc(Nc2nc(N)nc(CNC(c3nc4ccccc4[nH]3)C(C)C)n2)cc1 (centres unmarked) [Compound 79] | 6.40±1.30%
69 | Nc1nc(-c2ccccn2)nc(-n2nc(-c3ccccc3)cc2N)n1.O=C(O)C(F)(F)F.O=C(O)C(F)(F)F.O=C(O)C(F)(F)F.O=C(O)C(F)(F)F.O=C(O)C(F)(F)F.O=C(O)C(F)(F)F.O=C(O)C(F)(F)F.O=C(O)C(F)(F)F [Compound 177] | 17.70±1.20%

Same assay, conditions: assayed at 10 µM

Row | percentage of inhibition of LdGSK-3 | Structure (SMILES)
70 | higher than 50% | O=C(CSc1nnc(-c2ccc3c(c2)OCO3)o1)N(Cc1ccco1)CC(F)(F)F [Compound 184]
71 | higher than 50% | Cc1ccc(-c2csc(NC(=O)C=Cc3ccc(S(=O)(=O)N4CCOCC4)cc3)n2)o1 [Compound 69]
